# Test results: patent US20150250167A1, “COMPOSITION FOR NOXIOUS ORGANISMS-CONTROLLING AGENT AND METHOD FOR USING THE SAME” (priority 2001, published 2015)
# Where two headings read alike, the source gives them in different places.
# Key:
# [1] = system: Green Peach Aphid (Myzus persicae); assay: Insecticidal test on green peach aphid, spraying of Chinese cabbage, control value; assay type: in vivo; settings: single agent, 6 days after spraying
# [2] = system: Brown Rice Planthopper (Nilaparvata lugens); assay: Insecticidal test on brown rice planthopper, rice seedling dipping; assay type: in vivo; settings: single agent; for Death rate (%) After 1 days: after 1 day
# Excerpt: Insecticidal Test on Brown Rice Planthopper (Nilaparvata lugens)
# Rice seedlings (variety: Nihombare) were dipped in a solution of an agent diluted to a predetermined concentration for 30 seconds. After air-dryness, each seedling was introduced into a glass-made test tube having a diameter of 1.8 cm and a height of 20 cm, and inoculated with ten 3rd inster nimphs of brown rice planthopper. Then, the test tube was stoppered with cotton. One day after and four days after the treatment, the number of alive insects was counted, based on which the insect death rate was calculated.
# [3] = system: Diamondback Moth (Plutella xyloxtella); assay: Control of diamondback moth on cabbage by soil treatment, number of parasitic insects; assay type: in vivo; settings: 21 days after transplanting
# Experimental: (§1) Test for the Control of Diamondback Moth (Plutella xyloxtella) and Aphid on Cabbage by Soil Treatment
# (§2) A granular preparation was mixed into bed soil, and the mixture was filled into a cell seedling box and sown with seeds of cabbage (variety: YR Seitoku). Otherwise, cell seedling planted cabbage was treated with the granular agent either by a treatment in the foliage leaf extraction period, or by a pre-transplanting treatment, or by a pricking-in hole treatment, or by a plant foot treatment after the planting. Twenty one days after the transplanting (in the middle of June), the number of parasitic insects was counted on 30 hills in the case of diamondback moth and on 10 hills in the case of aphid.
# [4] = system: Southern Root-Knot Nematode (Meloidogyne incognita); assay: Test for the effect on southern root-knot nematode, soil blending with granular preparation; assay type: in vivo; settings: 300 g ai/10a, single agent, 60 days after treatment
# Excerpt: Test for the Effect on Southern Root-Knot Nematode (Meloidogyne incognita)
# Two killograms of a soil polluted with southern root-knot nematode was blended with a predetermined dose of a granular preparation. The mixture was filled into a 1/5,000 are Wagner pot. After sowing melon seeds and carrying out the treatment of the present invention, the pot was left to stand in a greenhouse. Sixty days after the treatment, 25 g of the soil was sampled out, the nematode was separated therefrom according to the method of Berman, and the numbers of nematodes were counted after 48 hours.
# In the tables, “ai” means active ingredient.
# [5] = system: Rice Water Weevil (Lissorhoptrus oryzophilus); assay: Control of rice water weevil on paddyfield rice by nursery box application, extent of injury; assay type: in vivo; settings: 0.5 g ai/Box, single agent
# [6] = system: Citrus Yellow Thrips (Frankliniella occidentalis); assay: Control of citrus yellow thrips on egg plant by combined use with natural enemy pesticide, number of thrips; assay type: in vivo; settings: 100 ppm, spray
# Cutworm = assay: Test for the effect against cutworm on beet, drench, number of injured hills per 100 hills; assay type: in vivo
# Experimental: Test for the Effect Against Cutworm on Beet
# Beet seedlings (variety: Monoace S) planted in a paper pot was treated with 3 L/m^2 of a solution of an agent diluted to a predetermined concentration, by the method of drench. Just after the drench, the plant was set. Predetermined days after the setting, the number of injured hills per 100 hills was counted.
# [7] = system: Small Brown Planthopper (Laodelphax striatellus); assay: Control of small brown planthopper on paddyfield rice by nursery box application, number of parasitic insects; assay type: in vivo; settings: single agent
# Experimental: (§3) Test for the Control of Small Brown Planthopper (Laodelphax striatellus) and Rice Leafroller (Cnaphalocrosis medinalis) on Paddyfield Rice Plant by Nursery Box Application
# (§4) Fifty grams of a granular preparation was applied to rice plant (variety: Nihombare) cultured in a nursery box, after which the rice plant was transplanted to the main paddy field (in the middle of May). The controlling effect against small brown planthopper was evaluated by investigating the number of parasitic insects on 30 hills per each plot, 40 days and 60 days after the transplantation. The controlling effect against rice leafroller was evaluated by investigating the number of injured leaves on 100 hills per each plot, 50 days after the transplantation.
# Rice Blast = settings: in vivo
# [8] = system: Rice Leafroller (Cnaphalocrosis medinalis); assay: Control of rice leafroller on paddyfield rice by nursery box application, number of injured leaves; assay type: in vivo; settings: single agent
# Experimental: as §3, §4
# Aphid = assay: Control of aphid on cabbage by soil treatment, number of parasitic insects; assay type: in vivo; settings: 21 days after transplanting
# Experimental: as §1
# as §2, with “Twenty one days after the transplanting (in the middle of June), the number of parasitic insects was counted on 30 hills in the case of diamondback moth and on 10 hills in the case of aphid.” left out
# [9] = system: Resistant Strain of Two-Spotted Spider Mite; settings: 100 ppm, single agent, 2 days after spraying
# [10] = system: Smaller Tea Tortrix (Adoxophyes orana fosciota); assay: Insecticidal test on smaller tea tortrix, tea leaf dipping; assay type: in vivo; settings: 4th instar larvae, 25° C.; for pest or weed control at 1 ppm / pest or weed control at 50 ppm / pest or weed control at 0.1 ppm: Adoxophyes orana, foliar; for pest or weed control at 50 ppm: single agent 50 ppm
# Experimental: Insecticidal Test on Smaller Tea Tortrix (Adoxophyes orana fosciota)
# Tea leaves were dipped in a solution of a chemical diluted to a prescribed concentration for 30 seconds. […] Four days and seven days after the treatment, the number of alive insects were counted, from which percentage of death was calculated.
# [11] = Myzus persicae, 144 h, read-out: Control degree (%)
# [12] = 5 mg ai/hill, plant foot treatment
# [13] = 5 mg ai/hill, pre-transplanting treatment
# [14] = 5 mg ai/hill, pricking-in hole treatment
# [15] = 5 mg ai/hill, soil incorporation
# [16] = 5 mg ai/hill, true leaf extraction season treatment
# [17] = 96 h, single agent 1 ppm, read-out: Death rate (%) After 4 days
# [18] = 168 h, single agent 1 ppm, read-out: Death rate (%) After 7 days
# [19] = 20 mg ai/hill, picking-in hole treatment
# [20] = 20 mg ai/hill, plant foot treatment
# [21] = 20 mg ai/hill, pre-transplanting treatment
compound,measurement,setting,value
Cc1c(COC(=O)[C@@H]2[C@H](/C=C(\Cl)C(F)(F)F)C2(C)C)cccc1-c1ccccc1 (racemic) [bifenthrin],pest or weed control at 0.1 ppm,[1]; [11],80%
Cc1cc(C(F)(F)C(F)(F)F)ccc1NC(=O)c1cccc(Cl)c1C(=O)NC(C)C [Compound 19],Death rate (%) After 1 days,[2]; 100 ppm,0%
same,Death rate (%) After 5 days,[2]; 100 ppm,0%
same,Control degree (%),[1]; 100 ppm,0%
same,"Number of parasitic insects per 30 hills, Diamondback moth",[3]; [12],2
same,"Number of parasitic insects per 30 hills, Diamondback moth",[3]; [13],1
same,"Number of parasitic insects per 30 hills, Diamondback moth",[3]; [14],1
same,"Number of parasitic insects per 30 hills, Diamondback moth",[3]; [15],1
same,"Number of parasitic insects per 30 hills, Diamondback moth",[3]; [16],2
same,Number of nematodes per 25 g of soil sample,[4],36
same,Extent of injury After 21 days,[5],38.9
same,"Number of parasitic insects per 20 leaves, After 60 days",[6],20
same,"Number of parasitic insects per 20 leaves, After 90 days",[6],27
same,"Number of parasitic insects per 20 leaves, After 120 days",[6],55
same,"Number of injured hills per 100 hills, After 60 days",Cutworm; 15 g ai/10a,0
same,"Number of injured hills per 100 hills, After 90 days",Cutworm; 15 g ai/10a,8
same,"Number of injured hills per 100 hills, After 120 days",Cutworm; 15 g ai/10a,21
same,Number of parasitic planthoppers per 30 hills After 40 days,[7]; 0.5 g ai/Box,325
same,Number of parasitic planthoppers per 30 hills After 60 days,[7]; 0.5 g ai/Box,389
same,Areal rate of disease spot (%) After 60 days,Rice Blast,8.3%
same,Percentage of injured leaves (%) After 50 days,[8]; 0.5 g ai/Box,0.16%
same,"Number of parasitic insects per 30 hills, Aphid",Aphid; [12],489
same,"Number of parasitic insects per 30 hills, Aphid",Aphid; [13],399
same,"Number of parasitic insects per 30 hills, Aphid",Aphid; [14],467
same,"Number of parasitic insects per 30 hills, Aphid",Aphid; [15],445
same,"Number of parasitic insects per 30 hills, Aphid",Aphid; [16],457
same,Death rate (%),[9],0%
same,Death rate (%) After 4 days,[10]; single agent 0.3 ppm,0%
same,Death rate (%) After 7 days,[10]; single agent 0.3 ppm,30%
COP(=O)(NC(C)=O)SC (stereo not shown) [acephate],pest or weed control at 10 ppm,[1]; [11],48%
same,"Number of injured hills per 100 hills, After 60 days",Cutworm; 50 g ai/10a,2
same,"Number of injured hills per 100 hills, After 90 days",Cutworm; 50 g ai/10a,14
same,"Number of injured hills per 100 hills, After 120 days",Cutworm; 50 g ai/10a,24
CCOC(=O)CCN(SN(C)C(=O)Oc1cccc2c1OC(C)(C)C2)C(C)C [benfuracarb],Number of parasitic planthoppers per 30 hills After 40 days,[7]; 2.5 g ai/Box,78
same,Number of parasitic planthoppers per 30 hills After 60 days,[7]; 2.5 g ai/Box,244
same,Percentage of injured leaves (%) After 50 days,[8]; 2.5 g ai/Box,1.13%
CC(C)N1C(=O)N(c2ccccc2)CS/C1=N\C(C)(C)C [buprofezin],Death rate (%) After 1 days,[2]; 0.3 ppm,0%
same,Death rate (%) After 5 days,[2]; 0.3 ppm,45%
"CCOCn1c(-c2ccc(Cl)cc2)c(C#N)c(Br)c1C(F)(F)F [chlorfenapyr, reference compound]",pest or weed control at 1 ppm,[10]; [17],0%
same,pest or weed control at 1 ppm,[10]; [18],0%
"O=C(NC(=O)c1c(F)cccc1F)Nc1cc(Cl)c(Oc2ncc(C(F)(F)F)cc2Cl)c(Cl)c1 [chlorfluazuron, reference compound]",pest or weed control at 1 ppm,[10]; [17],10%
same,pest or weed control at 1 ppm,[10]; [18],30%
"CCOP(=S)(OCC)Oc1nc(Cl)c(Cl)cc1Cl [chlorpyriphos, reference compound]",pest or weed control at 1 ppm,[10]; [17],10%
same,pest or weed control at 1 ppm,[10]; [18],10%
CC(C)([CH2][Sn]([CH2]C(C)(C)c1ccccc1)([CH2]C(C)(C)c1ccccc1)[O][Sn]([CH2]C(C)(C)c1ccccc1)([CH2]C(C)(C)c1ccccc1)[CH2]C(C)(C)c1ccccc1)c1ccccc1 [fenbutatin oxide],Death rate (%),[9],50%
"Cc1nn(C)c(Oc2ccccc2)c1C=NOCc1ccc(C(=O)OC(C)(C)C)cc1 [fenpyroximate, reference compound]",pest or weed control at 50 ppm,"[10]; 96 h, read-out: Death rate (%) After 4 days",0%
same,pest or weed control at 50 ppm,"[10]; 168 h, read-out: Death rate (%) After 7 days",0%
O=C(NC(=O)c1c(F)cccc1F)Nc1ccc(Oc2ccc(C(F)(F)F)cc2Cl)cc1F [flufenoxuron],pest or weed control at 50 ppm,"[1]; Myzus persicae, 144 h, 50 ppm, read-out: Control degree (%)",11%
CCOP(=O)(SC(C)CC)N1CCSC1=O (stereo not shown) [fosthiazate],Number of nematodes per 25 g of soil sample,[4],7
CC(C)(COCc1cccc(Oc2ccccc2)c1)c1ccc(OC(F)(F)Br)cc1 [halfenprox],Death rate (%),[9],35%
O=[N+]([O-])NC1=NCCN1Cc1ccc(Cl)nc1 [imidacloprid],Death rate (%) After 1 days,[2]; 0.1 ppm,35%
same,Death rate (%) After 5 days,[2]; 0.1 ppm,35%
same,pest or weed control at 0.1 ppm,[1]; [11],69%
same,"Number of parasitic insects per 30 hills, Diamondback moth",[3]; [19],40
same,"Number of parasitic insects per 30 hills, Diamondback moth",[3]; [20],38
same,"Number of parasitic insects per 30 hills, Diamondback moth",[3]; [21],35
same,Number of parasitic planthoppers per 30 hills After 40 days,[7]; 1 g ai/Box,0
same,Number of parasitic planthoppers per 30 hills After 60 days,[7]; 1 g ai/Box,29
same,Percentage of injured leaves (%) After 50 days,[8]; 1 g ai/Box,1.63%
same,"Number of parasitic insects per 30 hills, Aphid",Aphid; [19],16
same,"Number of parasitic insects per 30 hills, Aphid",Aphid; [20],13
same,"Number of parasitic insects per 30 hills, Aphid",Aphid; [21],10
"COC(=O)N(C(=O)N1CO[C@@]2(C(=O)OC)Cc3cc(Cl)ccc3C2=N1)c1ccc(OC(F)(F)F)cc1 [indoxacarb, reference compound]",Death rate (%) After 4 days,[10]; single agent 1 ppm,10%
same,Death rate (%) After 7 days,[10]; single agent 1 ppm,40%
"COc1cccc(C(=O)NN(C(=O)c2cc(C)cc(C)c2)C(C)(C)C)c1C [methoxyfenozide, reference compound]",pest or weed control at 0.1 ppm,"[10]; 96 h, single agent 0.1 ppm, read-out: Death rate (%) After 4 days",0%
same,pest or weed control at 0.1 ppm,"[10]; 168 h, single agent 0.1 ppm, read-out: Death rate (%) After 7 days",50%
CNC(=O)O/N=C(\SC)C(=O)N(C)C [oxamyl],Number of nematodes per 25 g of soil sample,[4],13
CC1=NNC(=O)N(/N=C/c2cccnc2)C1 [pymetrozin],Death rate (%) After 1 days,[2]; 100 ppm,10%
same,Death rate (%) After 5 days,[2]; 100 ppm,40%
CC(C)(C)c1ccc(CSc2cnn(C(C)(C)C)c(=O)c2Cl)cc1 [pyridaben],pest or weed control at 10 ppm,[1]; [11],43%
CCOc1ccc([Si](C)(C)CCCc2ccc(F)c(Oc3ccccc3)c2)cc1 [silafluofen],Death rate (%) After 1 days,[2]; 1 ppm,30%
same,Death rate (%) After 5 days,[2]; 1 ppm,30%
CCc1nn(C)c(C(=O)NCc2ccc(C(C)(C)C)cc2)c1Cl [tebufenpyrad],Death rate (%),[9],60%
emamectin-benzoate [reference compound],Death rate (%) After 4 days,[10]; single agent 0.1 ppm,10%
same,Death rate (%) After 7 days,[10]; single agent 0.1 ppm,45%
milbemectin,Control degree (%),[1]; 1 ppm,82%
